pEC50: −log10 of the molar value.
Experiments:
[1] = target: T1, ΔF508-CFTR (Homo sapiens, UniProt P13569, DEL508-508); test: CFTR cell surface levels using HRP-tagged ΔF508-CFTR expressing CFBE cells, in the presence of a co-corrector; format: cell-based; settings: HRP-tagged ΔF508-CFTR expressing CFBE cells, in the presence of 3 μM co-corrector; for pEC50: read-out: EC50
T1 construct: host or cells: CFBE41o-, doxycycline-inducible
In short: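 Cells were seeded with 0.5 μg/mL doxycycline and held 68 h at 37 °C. Test compounds plus 3 μM co-corrector (final 0.1% DMSO) were then added for 20 h at 33 °C. Washed cells received HRP substrate, and luminescence was normalized between DMSO and 3 μM co-corrector controls.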

[2] = target: T1, ΔF508-CFTR; test: CFTR cell surface levels using HRP-tagged ΔF508-CFTR expressing CFBE cells, intrinsic corrector capacity; format: cell-based; settings: for pEC50: read-out: EC50
In short: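 Here the cells express ΔF508-CFTR with horseradish peroxidase inserted in extracellular loop 4, so only rescued channel at the surface gives luminescent signal. Compounds act on their own, 20 h at the reduced temperature of 33 °C; values are percent activity relative to DMSO and a 3 μM corrector.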

[3] = HRP-tagged ΔF508-CFTR expressing CFBE cells, intrinsic corrector capacity (no co-corrector), 33° C., 20 hours
[4] = HRP-tagged ΔF508-CFTR CFBE cells, compound alone (intrinsic corrector capacity), 20 hours at 33° C.

T1 sequence (P13569 with tags, fused parts or gaps DEL508-508): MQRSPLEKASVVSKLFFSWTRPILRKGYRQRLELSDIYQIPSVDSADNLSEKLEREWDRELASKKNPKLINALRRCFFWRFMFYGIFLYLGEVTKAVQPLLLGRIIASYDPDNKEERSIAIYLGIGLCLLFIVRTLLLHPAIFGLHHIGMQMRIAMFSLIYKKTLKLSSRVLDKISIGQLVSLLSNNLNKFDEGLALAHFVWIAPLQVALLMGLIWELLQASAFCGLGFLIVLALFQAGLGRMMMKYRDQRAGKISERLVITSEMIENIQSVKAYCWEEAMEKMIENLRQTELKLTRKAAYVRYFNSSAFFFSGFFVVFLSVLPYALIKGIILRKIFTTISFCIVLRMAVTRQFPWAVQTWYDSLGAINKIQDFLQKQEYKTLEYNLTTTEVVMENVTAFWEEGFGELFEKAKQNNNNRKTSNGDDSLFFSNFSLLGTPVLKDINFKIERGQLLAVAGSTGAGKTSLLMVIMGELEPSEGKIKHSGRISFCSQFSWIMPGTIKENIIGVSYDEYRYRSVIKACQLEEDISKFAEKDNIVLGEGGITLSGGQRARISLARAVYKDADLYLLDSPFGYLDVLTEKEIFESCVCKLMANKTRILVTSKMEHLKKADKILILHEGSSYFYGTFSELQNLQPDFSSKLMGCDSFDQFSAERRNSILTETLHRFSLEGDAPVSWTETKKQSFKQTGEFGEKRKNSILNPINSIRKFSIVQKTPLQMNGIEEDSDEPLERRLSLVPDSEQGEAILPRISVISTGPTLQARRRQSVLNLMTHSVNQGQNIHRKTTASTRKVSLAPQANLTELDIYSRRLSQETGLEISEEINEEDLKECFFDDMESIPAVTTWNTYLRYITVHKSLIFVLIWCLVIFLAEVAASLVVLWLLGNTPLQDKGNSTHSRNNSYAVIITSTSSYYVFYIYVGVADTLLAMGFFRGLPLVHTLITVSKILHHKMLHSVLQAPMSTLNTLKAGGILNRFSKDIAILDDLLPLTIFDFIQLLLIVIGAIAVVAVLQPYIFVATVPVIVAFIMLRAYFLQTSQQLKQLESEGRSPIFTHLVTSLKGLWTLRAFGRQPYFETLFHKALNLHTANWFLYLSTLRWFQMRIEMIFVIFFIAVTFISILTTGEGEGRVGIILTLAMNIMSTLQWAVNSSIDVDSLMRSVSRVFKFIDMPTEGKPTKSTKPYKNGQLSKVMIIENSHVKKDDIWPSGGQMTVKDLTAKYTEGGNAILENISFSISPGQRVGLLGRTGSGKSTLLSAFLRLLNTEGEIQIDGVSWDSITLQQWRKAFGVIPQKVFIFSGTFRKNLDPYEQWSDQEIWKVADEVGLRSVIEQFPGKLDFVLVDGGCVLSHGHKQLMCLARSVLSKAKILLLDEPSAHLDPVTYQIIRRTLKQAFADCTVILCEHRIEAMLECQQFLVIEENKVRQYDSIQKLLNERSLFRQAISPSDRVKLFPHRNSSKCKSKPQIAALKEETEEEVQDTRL

SMILES	% Activation [1] [%]	pEC50 [1]	% Activation [2, 3] [%]	pEC50 [2, 3]	% Activation [2, 4] [%]	pEC50 [2, 4]
O=C(O)c1cc(N2CCC(N3CCC(O)CC3)CC2)c2c(C3CCC3)nn(-c3ccc(F)cc3)c2n1 [compound 898, 3-cyclobutyl-1-(4-fluorophenyl)-4-(4-hydroxy[1,4′-bipiperidin]-1′-yl)-1H-pyrazolo[3,4-b]pyridine-6-carboxylic acid]	393.6	5.48	231.6	5.49	–	–
O=C(O)c1cc(N2CCC(N3CCOCC3)CC2)c2c(C3CCC3)nn(-c3cccc(OC(F)F)c3)c2n1 [compound 910, 3-cyclobutyl-1-[3-(difluoromethoxy)phenyl]-4-[4-(morpholin-4-yl)piperidin-1-yl]-1H-pyrazolo[3,4-b]pyridine-6-carboxylic acid]	499.9	7.10	286.2	6.73	–	–
CC(F)(F)c1cccc(-n2nc(C3CCC3)c3c(N4CCC(N5CCOCC5)CC4)cc(C(=O)O)nc32)c1 [compound 915]	587.95	7.30	–	–	386.2	6.40
CC(C)Oc1cccc(-n2nc(C3CCC3)c3c(N4CCC(N5CCOCC5)CC4)cc(C(=O)O)nc32)n1 [compound 924, 3-cyclobutyl-4-[4-(morpholin-4-yl)piperidin-1-yl]-1-{6-[(propan-2-yl)oxy]pyridin-2-yl}-1H-pyrazolo[3,4-b]pyridine-6-carboxylic acid]	609.82	6.86	–	–	374.45	6.38
CC(C)Oc1nn(C2CCCCC2)c2nc(C(=O)O)cc(-c3ccc(CN4CC(N(C)C)C4)cc3)c12 [compound 927, 1-cyclohexyl-4-(4-{[3-(dimethylamino)azetidin-1-yl]methyl}phenyl)-3-[(propan-2-yl)oxy]-1H-pyrazolo[3,4-b]pyridine-6-carboxylic acid]	362.92	5.96	–	–	150.78	5.90
